Laboratory results published in US6610248B1, “Disinfectants” (Lonza AG, priority 1999, dated 2003).

How the values were obtained:
[1] = Determination of foaming (shaken mixing cylinder, foam volume read off); assay type: physicochemical; conditions: 250 ppm in demineralized water, 20° C.
Experimental: A 250 ml mixing cylinder was filled with 100 ml of solution. After any foam formed in the course of this had disappeared, the sealed cylinder was shaken vigorously vertically for 15 s (approximately 15×) and then placed on a flat support. The volume of the resultant foam was read off at regular time intervals.

[2] = system: Pseudomonas aeruginosa ATCC 15442; assay: Quantitative suspension test EN 1276; assay type: cell-based; conditions: contact time 5 min, water hardness 300 mg/kg CaCO3, 20° C.
Experimental: (§1) As specified by standard EN 1276, the efficacy of N,N-bis (3-aminopropyl)octylamine (according to the invention) and N,N-bis (3-aminopropyl)dodecylamine (comparison) was determined in the presence of albumin for various test microorganisms. [table]

[3] = system: Staphylococcus aureus ATCC 6538; assay: Quantitative suspension test EN 1276; assay type: cell-based; conditions: contact time 5 min, water hardness 300 mg/kg CaCO3, 20° C.
Experimental: as §1

[4] = system: Escherichia coli ATCC 10536; assay: Quantitative suspension test EN 1276; assay type: cell-based; conditions: contact time 5 min, water hardness 300 mg/kg CaCO3, 20° C.
Experimental: as §1

[5] = system: Enterococcus hirae ATCC 8043; assay: Quantitative suspension test EN 1276; assay type: cell-based; conditions: contact time 5 min, water hardness 300 mg/kg CaCO3, 20° C.
Experimental: as §1

[6] = system: Mycobacterium terrae ATCC 15755; assay: Quantitative suspension test using Mycobacterium terrae (Hygiene & Medizin 1997 method); assay type: cell-based; conditions: 0.3% active compound, 20° C., contact time 15 min
Experimental: Using the method described in Hygiene & Medizin 1997, 22, pp. 278-283, the activity of N,N-bis(3-amino-propyl)octylamine against Mycobacterium terrae ATCC 15755 was determined under differing organic loads. The concentration of active compound was in each case 0.3%, the temperature 20° C. and the contact time 15 min. The common logarithmic reduction in bacterial count was determined each time.

## CCCCCCCCCCCCN(CCCN)CCCN [N,N-bis(3-aminopropyl)dodecylamine, reference compound]
[1]
  foam volume after 10 s: 140 mL
  foam volume after 60 s: 120 mL
[2]; 0.03% albumin
  concentration for log. reduction >5: 0.025%
[2]; 0.3% albumin
  concentration for log. reduction >5: 0.50%
[3]; 0.03% albumin
  concentration for log. reduction >5: 0.05%
[3]; 0.3% albumin
  concentration for log. reduction >5: 0.10%
[4]; 0.03% albumin
  concentration for log. reduction >5: 0.025%
[4]; 0.3% albumin
  concentration for log. reduction >5: 0.025%
[5]; 0.03% albumin
  concentration for log. reduction >5: 0.05%
[5]; 0.3% albumin
  concentration for log. reduction >5: 0.05%

## CCCCCCCCN(CCCN)CCCN [N,N-bis(3-aminopropyl)octylamine]
[1]
  foam volume after 10 s: 20 mL
  foam volume after 60 s: virtually completely disappeared
[1]; relative to volume at 10 s
  foam volume after a further 10 s: decreased to half
[6]; load: 0.3% albumin
  Log reduction in bacterial count: 4.09
[6]; load: 0.5% sheep's blood
  Log reduction in bacterial count: 4.48
[6]; load: none
  Log reduction in bacterial count: 4.33
[2]; 0.03% albumin
  concentration for log. reduction >5: 0.05%
[2]; 0.3% albumin
  concentration for log. reduction >5: 0.10%
[3]; 0.03% albumin
  concentration for log. reduction >5: 0.10%
[3]; 0.3% albumin
  concentration for log. reduction >5: 0.10%
[4]; 0.03% albumin
  concentration for log. reduction >5: 0.05%
[4]; 0.3% albumin
  concentration for log. reduction >5: 0.05%
[5]; 0.03% albumin
  concentration for log. reduction >5: 0.10%
[5]; 0.3% albumin
  concentration for log. reduction >5: 0.05%
